Assay results published in ChEMBL document CHEMBL1201862, “PubChem BioAssay data set” (2004).
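Where inhibition never reached the appropriate level, the endpoint shown equals the highest concentration tested. Otherwise, values were interpolated linearly from a five-concentration, 48-hour dose response in 96-well plates. GI50 = concentration required for 50% inhibition of growth.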 Activity calls are given as the source filed them. No stated cut-off is given here; in the data, active = GI50 up to about 1.1 µM and inactive = higher.

Assays:
Test in all cases: NCI tumour cell line growth inhibition, 48 h
786-0 = test system: 786-0
A498 = test system: A498
A549 = test system: A549
ACHN = test system: ACHN
BT-549 = test system: BT-549
CAKI-1 = test system: CAKI-1
CCRF-CEM = test system: CCRF-CEM
DU-145 = test system: DU-145
EKVX = test system: EKVX
HCT-116 = test system: HCT-116
HCT-15 = test system: HCT-15
HOP-62 = test system: HOP-62
HOP-92 = test system: HOP-92
HT-29 = test system: HT-29
Hs-578T = test system: Hs-578T
IGROV-1 = test system: IGROV-1
K562 = test system: K562
KM12 = test system: KM12
LOX IMVI = test system: LOX IMVI
M14 = test system: M14
MCF7 = test system: MCF7
MDA-MB-231 = test system: MDA-MB-231
MDA-MB-435 = test system: MDA-MB-435
MOLT-4 = test system: MOLT-4
Malme-3M = test system: Malme-3M
NCI-H226 = test system: NCI-H226
NCI-H23 = test system: NCI-H23
NCI-H460 = test system: NCI-H460
NCI-H522 = test system: NCI-H522
NCI/ADR-RES = test system: NCI/ADR-RES
OVCAR-3 = test system: OVCAR-3
OVCAR-4 = test system: OVCAR-4
OVCAR-5 = test system: OVCAR-5
OVCAR-8 = test system: OVCAR-8
PC-3 = test system: PC-3
RPMI-8226 = test system: RPMI-8226
RXF 393 = test system: RXF 393
SF-268 = test system: SF-268
SF-295 = test system: SF-295
SF-539 = test system: SF-539
SK-MEL-28 = test system: SK-MEL-28
SK-MEL-2 = test system: SK-MEL-2
SK-MEL-5 = test system: SK-MEL-5
SK-OV-3 = test system: SK-OV-3
SN12C = test system: SN12C
SNB-19 = test system: SNB-19
SNB-75 = test system: SNB-75
SR = test system: SR
SW-620 = test system: SW-620
T47D = test system: T47D
TK-10 = test system: TK-10
U-251 = test system: U-251
UACC-257 = test system: UACC-257
UACC-62 = test system: UACC-62
UO-31 = test system: UO-31
COLO 205 = test system: COLO 205
HCC 2998 = test system: HCC 2998

CC(Cc1ccc(O)cc1)NCC(O)c1ccc(O)c(O)c1 (centres undefined)
GI50 (786-0): > 100 µM (inactive)
GI50 (A498): > 100 µM (inactive)
GI50 (A549): > 100 µM (inactive)
GI50 (ACHN): > 100 µM (inactive)
GI50 (BT-549): > 100 µM (inactive)
GI50 (CAKI-1): > 100 µM (inactive)
GI50 (CCRF-CEM): > 100 µM (inactive)
GI50 (DU-145): > 100 µM (inactive)
GI50 (EKVX): > 100 µM (inactive)
GI50 (HCT-116): > 100 µM (inactive)
GI50 (HCT-15): > 100 µM
GI50 (HOP-62): > 100 µM (inactive)
GI50 (HOP-92): > 100 µM (inactive)
GI50 (HT-29): > 100 µM (inactive)
GI50 (Hs-578T): > 100 µM (inactive)
GI50 (IGROV-1): > 100 µM (inactive)
GI50 (K562): > 100 µM (inactive)
GI50 (KM12): > 100 µM (inactive)
GI50 (LOX IMVI): > 100 µM (inactive)
GI50 (M14): > 100 µM (inactive)
GI50 (MCF7): > 100 µM (inactive)
GI50 (MDA-MB-231): 3.35 µM (inactive)
GI50 (MDA-MB-435): > 100 µM (inactive)
GI50 (MOLT-4): 73.5 µM (inactive)
GI50 (Malme-3M): > 100 µM (inactive)
GI50 (NCI-H226): > 100 µM (inactive)
GI50 (NCI-H23): > 100 µM (inactive)
GI50 (NCI-H460): > 100 µM (inactive)
GI50 (NCI-H522): > 100 µM (inactive)
GI50 (NCI/ADR-RES): > 100 µM (inactive)
GI50 (OVCAR-3): 81.7 µM (inactive)
GI50 (OVCAR-4): > 100 µM (inactive)
GI50 (OVCAR-5): > 100 µM (inactive)
GI50 (OVCAR-8): > 100 µM (inactive)
GI50 (PC-3): > 100 µM (inactive)
GI50 (RPMI-8226): > 100 µM (inactive)
GI50 (RXF 393): > 100 µM (inactive)
GI50 (SF-268): > 100 µM (inactive)
GI50 (SF-295): > 100 µM (inactive)
GI50 (SF-539): > 100 µM (inactive)
GI50 (SK-MEL-28): > 100 µM (inactive)
GI50 (SK-MEL-2): > 100 µM (inactive)
GI50 (SK-MEL-5): > 100 µM (inactive)
GI50 (SK-OV-3): > 100 µM (inactive)
GI50 (SN12C): > 100 µM (inactive)
GI50 (SNB-19): > 100 µM (inactive)
GI50 (SNB-75): > 100 µM (inactive)
GI50 (SR): 88.3 µM (inactive)
GI50 (SW-620): > 100 µM (inactive)
GI50 (T47D): > 100 µM (inactive)
GI50 (TK-10): > 100 µM (inactive)
GI50 (U-251): > 100 µM (inactive)
GI50 (UACC-257): > 100 µM (inactive)
GI50 (UACC-62): > 100 µM (inactive)
GI50 (UO-31): > 100 µM (inactive)

Cc1cc2c3c(nc4ccccc42)C(=O)c2ccccc2-c3n1
GI50 (786-0): 25.5 µM (inactive)
GI50 (A498): 16.9 µM (inactive)
GI50 (A549): 7.1 µM (inactive)
GI50 (ACHN): 12.2 µM (inactive)
GI50 (BT-549): 16.9 µM (inactive)
GI50 (CAKI-1): 12.3 µM (inactive)
GI50 (CCRF-CEM): 5.16 µM (inactive)
GI50 (COLO 205): 16.8 µM (inactive)
GI50 (DU-145): 23.5 µM (inactive)
GI50 (EKVX): 29.4 µM (inactive)
GI50 (HCC 2998): 20.1 µM (inactive)
GI50 (HCT-116): 8.59 µM (inactive)
GI50 (HCT-15): 1.35 µM
GI50 (HOP-62): 6.18 µM (inactive)
GI50 (HOP-92): 19.3 µM (inactive)
GI50 (HT-29): 21.7 µM (inactive)
GI50 (Hs-578T): 13.4 µM (inactive)
GI50 (IGROV-1): 2.98 µM (inactive)
GI50 (K562): 0.839 µM (active)
GI50 (KM12): 1.02 µM (active)
GI50 (M14): 4.44 µM (inactive)
GI50 (MCF7): 10.5 µM (inactive)
GI50 (MDA-MB-231): 18 µM (inactive)
GI50 (MDA-MB-435): 1.66 µM (inactive)
GI50 (MOLT-4): 3.34 µM (inactive)
GI50 (NCI-H226): 21 µM (inactive)
GI50 (NCI-H23): 2.4 µM (inactive)
GI50 (NCI-H522): 1.68 µM (inactive)
GI50 (NCI/ADR-RES): 6.53 µM (inactive)
GI50 (OVCAR-3): 0.135 µM (active)
GI50 (OVCAR-4): 25.4 µM (inactive)
GI50 (OVCAR-5): 32 µM (inactive)
GI50 (OVCAR-8): 5.52 µM (inactive)
GI50 (PC-3): 0.851 µM (active)
GI50 (RPMI-8226): 3.14 µM (inactive)
GI50 (RXF 393): 20.3 µM (inactive)
GI50 (SF-268): 30.6 µM (inactive)
GI50 (SF-295): 10.1 µM (inactive)
GI50 (SF-539): 19.3 µM (inactive)
GI50 (SK-MEL-28): 14.6 µM (inactive)
GI50 (SK-MEL-2): 17.9 µM (inactive)
GI50 (SK-MEL-5): 0.569 µM (active)
GI50 (SK-OV-3): 14.8 µM (inactive)
GI50 (SN12C): 17 µM (inactive)
GI50 (SNB-19): 45.8 µM (inactive)
GI50 (SNB-75): 4.37 µM (inactive)
GI50 (SR): 1.79 µM (inactive)
GI50 (SW-620): 9.48 µM (inactive)
GI50 (T47D): 12.7 µM (inactive)
GI50 (TK-10): 34.8 µM (inactive)
GI50 (U-251): 16.1 µM (inactive)
GI50 (UACC-257): 22.8 µM (inactive)
GI50 (UACC-62): 1.8 µM (inactive)
GI50 (UO-31): 10.5 µM (inactive)
